Assay results: patent publication US20240209005A1, “BICYCLIC HETEROARYL BORONATE DERIVATIVES AS ECTONUCLEOTIDE PYROPHOSPHATASE PHOSPHODIESTERASE 1 INHIBITORS” (RIBOSCIENCE LLC, priority 2021, published 2024)
pKi: −log10 of the molar value.

Columns and labels:
HGS tumor model = experiment: Anti-tumor activity in HGS tumor model; format: in vivo; conditions: animals treated with 20/kg of compound, day 42 after inoculation
Description: […]

ENPP1 = molecular target: T1, ENPP1 (Homo sapiens, UniProt P22413); experiment: Measurement of pNP-TMP hydrolysis by ENPP1; format: biochemical; conditions: purified ENPP1, pNP-TMP substrate 500 μM, KM 232 μM; Ki calculated from IC50 by Cheng-Prusoff
T1 sequence (P22413 1-925): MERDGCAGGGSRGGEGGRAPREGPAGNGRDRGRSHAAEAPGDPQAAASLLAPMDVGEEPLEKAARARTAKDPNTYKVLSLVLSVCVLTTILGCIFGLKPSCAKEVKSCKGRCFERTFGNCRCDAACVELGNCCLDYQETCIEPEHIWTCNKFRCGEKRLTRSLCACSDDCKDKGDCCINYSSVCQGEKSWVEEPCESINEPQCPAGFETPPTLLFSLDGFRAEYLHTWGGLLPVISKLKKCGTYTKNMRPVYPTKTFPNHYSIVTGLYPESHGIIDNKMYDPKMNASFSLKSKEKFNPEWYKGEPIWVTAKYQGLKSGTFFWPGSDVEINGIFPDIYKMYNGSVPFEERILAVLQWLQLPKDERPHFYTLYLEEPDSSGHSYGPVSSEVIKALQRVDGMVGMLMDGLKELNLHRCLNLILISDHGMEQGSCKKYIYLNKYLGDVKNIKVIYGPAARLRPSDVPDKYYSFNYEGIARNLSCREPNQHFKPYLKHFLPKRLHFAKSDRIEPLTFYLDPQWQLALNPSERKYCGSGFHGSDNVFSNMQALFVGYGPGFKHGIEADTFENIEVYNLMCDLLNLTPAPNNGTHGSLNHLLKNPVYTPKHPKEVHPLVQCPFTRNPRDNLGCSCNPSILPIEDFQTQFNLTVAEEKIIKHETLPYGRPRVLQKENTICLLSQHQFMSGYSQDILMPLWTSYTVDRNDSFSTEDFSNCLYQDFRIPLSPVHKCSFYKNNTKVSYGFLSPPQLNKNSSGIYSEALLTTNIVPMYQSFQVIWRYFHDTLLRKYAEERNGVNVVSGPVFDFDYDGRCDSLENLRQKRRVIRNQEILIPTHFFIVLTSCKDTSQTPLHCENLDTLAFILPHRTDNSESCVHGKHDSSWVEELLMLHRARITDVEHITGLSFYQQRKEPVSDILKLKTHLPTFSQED
Protocol: p-Nitrophenyl thymidine 5′-monophosphate (pNP-TMP) is a synthesized substrate for ENPP1. The ENPP1 enzyme activity assay with pNP-TMP substrate was conducted as follows:
Incubation of ENPP1 with compounds was set at 25° C. for 10 min. […] For each compound dilution, wells with assay buffer (50 mM Tris-HCl, pH8.8, 250 mM NaCl, 0.1 mg/ml BSA, 1% DMSO) only but no ENPP1 were included as controls for subtraction of test compound derived absorbance at 405 nm.
Absorbance at 405 nm was recorded immediately in kinetic mode by PerkinElmer 2300 Enspire multimode plate reader.
For each inhibitor, the specific ENPP1 activity was calculated using the following equation: ENPP1 activity (pmol/min/g)=Adjusted Vmax (OD405 nm/min) X conversion factor (pmol/OD405 nm)/amount of enzyme (g)
Adjusted Vmax=V0×(Km+(S))/(S).
V0=(OD405 nm with ENPP1−OD405 nm ENPP1 blank)/minutes. OD405 nm was plotted, with blank subtracted, against time (minutes), the initial linear rate is V0. […]
The slope is the conversion factor. The percent ENPP1 activity for each sample was calculated using the following equation:
% enzyme activity=sample enzyme activity/MAX Activity×100%.
To determine the IC50 for each compound, compound concentration values and percent enzyme activity values were inserted into GraphPad Prism (GraphPad Prism version 7.0 for Windows, GraphPad Software, La Jolla California USA, www.graphpad.com), and Prism's Transform analysis was used to convert the x-axis values (compound concentration) to logarithms. A sigmoidal variable slope nonlinear regression analysis was performed using the following equation: Y=Bottom+(Top−Bottom)/(1+10^((LogIC50−X)*HillSlope)).

| Structure (SMILES) | tumor size (HGS tumor model) [mm3] | pKi (ENPP1) |
| --- | --- | --- |
| C=CC(=O)N1CCN(CCCn2c(=O)c(-c3c(Cl)c(OC)cc(OC)c3Cl)cc3cnc(NC)nc32)CC1 [8-(3-(4-acryloylpiperazin-1-yl)propyl)-6-(2,6-dichloro-3,5-dimethoxyphenyl)-2-(methylamino)pyrido[2,3-d]pyrimidin-7(8H)-one] | 55 |  |
| CCNC(=O)c1c[nH]c2c(NCc3ccc(B(O)O)cc3)ncnc12 [compound 10, 4-([[7-(ethylcarbamoyl)-5H-pyrrolo[3,2-d]pyrimidin-4-yl]-amino]methyl)phenylboronic acid; formic acid] |  | > 7.00 |
| CC(C)C(=O)Nc1csc2c(NCc3ccc(B(O)O)cc3)ncnc12 [compound 23, 4-([[7-(2-methylpropanamido)thieno[3,2-d]pyrimidin-4-yl]-amino]methyl)phenylboronic acid] |  | < 5.00 |
| OB(O)c1ccc(CNc2nc(-c3ccccc3)nc3cn[nH]c23)cc1 [compound 28, 4-[([5-phenyl-1H-pyrazolo[4,3-d]pyrimidin-7-yl]amino)-methyl]phenylboronic acid] |  | > 6.00 |
| OB(O)c1ccc(CNc2ncnc3ccsc23)cc1 [compound 26, 4-([thieno[3,2-d]pyrimidin-4-ylamino]methyl)phenyl-boronic acid.] |  | > 7.00 |
| N#Cc1csc2c(NCc3ccc(B(O)O)cc3)ncnc12 [compound 40, 4-[([7-cyanothieno[3,2-d]pyrimidin-4-yl]amino)-methyl]phenylboronic acid] |  | > 7.00 |
| CC(=O)Nc1csc2c(NCc3ccc(B(O)O)cc3)ncnc12 [Cpd. 8, 4-[([7-acetamidothieno[3,2-d]pyrimidin-4-yl]amino)-methyl]phenylboronic acid] |  | > 7.00 |
| COC(=O)c1csc2c(NCc3ccc(B(O)O)cc3)ncnc12 [compound 38, 4-([[7-(methoxycarbonyl)thieno[3,2-d]pyrimidin-4-yl]-amino]methyl)-phenylboronic acid] |  | > 7.00 |
| Cn1ncc2ncnc(NCc3ccc(B(O)O)cc3)c21 [compound 18, 4-[([1-methylpyrazolo[4,3-d]pyrimidin-7-yl]amino)methyl]-phenylboronic acid] |  | > 7.00 |
| CC(=O)Nc1c[nH]c2c(NCc3ccc(B(O)O)cc3)ncnc12 [compound 7, 4-[([7-acetamido-5H-pyrrolo[3,2-d]pyrimidin-4-yl]amino)-methyl]phenylboronic acid] |  | > 6.00 |
| Cn1cnc2ncnc(NCc3ccc(B(O)O)cc3)c21 [compound 19, 4-[[(7-methylpurin-6-yl)amino]methyl]phenylboronic acid] |  | > 7.00 |
| O=C(Nc1csc2c(NCc3ccc(B(O)O)cc3)ncnc12)c1ccccc1 [compound 24, 4-[([7-benzamidothieno[3,2-d]pyrimidin-4-yl]amino)-methyl]phenylboronic acid] |  | < 5.00 |
| OB(O)c1ccc(CNc2ccnc3cn[nH]c23)cc1 [compound 37, 4-([1H-pyrazolo[4,3-b]pyridin-7-ylamino]methyl)phenyl-boronic acid] |  | > 7.00 |
| CC(C)NC(=O)c1c[nH]c2c(NCc3ccc(B(O)O)cc3)ncnc12 [compound 14, 4-([[7-(isopropylcarbamoyl)-5H-pyrrolo[3,2-d]pyrimidin-4-yl]amino]methyl)phenylboronic acid] |  | > 6.00 |
| NC(=O)c1csc2c(NCc3ccc(B(O)O)cc3)ncnc12 [compound 39, 4-[([7-carbamoylthieno[3,2-d]pyrimidin-4-yl]amino)-methyl]phenylboronic acid] |  | > 7.00 |
| Cn1ncc2nc(-c3ccccc3)nc(NCc3ccc(B(O)O)cc3)c21 [compound 29, 4-[([1-methyl-5-phenylpyrazolo[4,3-d]pyrimidin-7-yl]-amino)-methyl]phenylboronic acid] |  | > 6.00 |
| OB(O)c1ccc(CNc2ncnc3cn[nH]c23)cc1 [compound 9, 4-([1H-pyrazolo[4,3-d]pyrimidin-7-ylamino]methyl)-phenylboronic acid] |  | > 7.00 |
| O=C(NCCO)c1c[nH]c2c(NCc3ccc(B(O)O)cc3)ncnc12 [compound 13, 4-[([7-[(2-hydroxyethyl)carbamoyl]-5H-pyrrolo[3,2-d]-pyrimidin-4-yl]amino)methyl]phenylboronic acid] |  | > 5.00 |
| Cc1nc(NCc2ccc(B(O)O)cc2)c2c(cnn2C)n1 [compound 5, 4-[([1,5-dimethylpyrazolo[4,3-d]pyrimidin-7-yl]amino)-methyl]phenylboronic acid] |  | > 6.00 |
| Cn1ncc2nc(/C=C/c3cccnc3)nc(NCc3ccc(B(O)O)cc3)c21 [compound 35, 4-[([1-methyl-5-[(E)-2-(pyridin-3-yl)ethenyl]pyrazolo[4,3-d]pyrimidin-7-yl]amino)methyl]phenylboronic acid] |  | > 7.00 |
| Cn1ncc2nc(-c3ccncc3)nc(NCc3ccc(B(O)O)cc3)c21 [compound 32, 4-([[1-methyl-5-(pyridin-4-yl)pyrazolo[4,3-d]pyrimidin-7-yl]amino]methyl)phenylboronic acid] |  | > 7.00 |
| NC(=O)c1c[nH]c2c(NCc3ccc(B(O)O)cc3)ncnc12 [compound 16, 4-[([7-carbamoyl-5H-pyrrolo[3,2-d]pyrimidin-4-yl]amino)-methyl]phenylboronic acid] |  | > 6.00 |
